Six compounds from PMC10780275, “Evaluation of Anti-Trypanosoma cruzi Activity of Chemical Constituents from Baccharis sphenophylla Isolated Using High-Performance Countercurrent Chromatography” (Molecules, 2023) can be followed below.

Read-outs that look alike come from different tables or passages of the source.

Usually CC50 stands for the concentration at which the toxic effect on the cells reaches its halfway point. As a reminder, the EC50 is the concentration giving half of the maximal effect.

Data set [1] relates to T. cruzi amastigote. Briefly: Activity against intracellular amastigotes of T. cruzi within infected macrophages (Giemsa, light microscope, 48 h). It counts as cell-based, Trypanosoma cruzi (Y strain). To be noted: for EC50: Trypanosoma cruzi, Peritoneal macrophage, in Mus musculus, read-out: T. cruzi Amastigote EC50 (μM) ± SD. An excerpt: The experimental animals were sourced from the animal breeding facility located at Instituto Adolfo Lutz in São Paulo State, Brazil. Peritoneal macrophages were extracted from female BALB/c mice for intracellular experiments, while male BALB/c mice were utilized to sustain T. cruzi. These animals were provided unlimited access to both water and food, residing in sterilized enclosures within a meticulously regulated environment. All procedures were previously approved by the Animal Ethics Commission of Instituto Adolfo Lutz.
(§1) NCTC cells (clone 929, ATCC) were cultured in RPMI-1640 supplemented with 10% of fetal bovine serum (FBS), at 37 °C within a 5% CO2-humidified incubator. To collect peritoneal macrophages, the abdominal cavity of female BALB/c mice was rinsed with an RPMI-1640 medium, containing 10% FBS. These macrophages were then cultured overnight at 37 °C in a 5% CO2-humidified incubator. Trypanosoma cruzi trypomastigotes (Y strain) were maintained within Rhesus monkey kidney epithelial cells (LLC-MK2) cells using an RPMI-1640 medium supplemented with 2% FBS, and the incubation took place at 37 °C with 5% CO2 and humidity.
The EC50 values for compounds 1–8 against intracellular amastigotes of T. cruzi were determined within infected macrophages. Macrophages, obtained as detailed in item 4.9, were seeded onto a 16-well chamber slide (NUNC plate, Thermo Fisher, Waltham, MA, USA) at a density of 1 × 10^5 cells per well. Subsequently, these cell cultures were incubated overnight at 37 °C in a humidified incubator containing 5% CO2. Trypomastigotes, previously derived from infected LLC-MK2 cells, underwent washing in an RPMI-1640 medium, were quantified, and were then employed to infect the macrophages at a concentration of 1 × 10^6 trypomastigotes per well. Following a 2 h infection period, any non-internalized trypomastigotes were eliminated by rinsing with an RPMI medium. The compounds were subsequently exposed to the infected macrophages for 48 h at 37 °C within a 5% CO2 environment. A range of serial dilutions (ranging from 30.00 to 1.87 μM) were used for the incubation of compounds, and benznidazole was utilized as the standard drug. At the final stage of the experiment, the chamber slides were fixed using MeOH and stained with Giemsa before being assessed under a light microscope (Thermo EVOS M5000).
(§2) The CC50 and EC50 values were derived through the analysis of sigmoidal dose–response curves using GraphPad Prism 6.0 software. The samples were subjected to duplicate testing, and the experiments were replicated a minimum of two times.

The nature of data set [2]: Cytotoxicity against mammalian NCTC cells (MTT assay, 48 h). The data set is classed as cell-based. To be noted: mouse, NCTC murine fibroblasts, highest tested concentration 200 μM, read-out: NCTC Mammalian Cell CC50 (μM) ± SD. Here is the method: as §1
The determination of CC50 (50% cytotoxic concentration) values for compounds 1–8 was conducted using NCTC cells (L929 clone). These cells were seeded at a density of 6 × 10^4 cells per well in 96-well plates (Thermo Fisher). The cells were then exposed to a series of compound dilutions, ranging from 200 to 1.56 µM, and incubated for 48 h at 37 °C within a 5% CO2-equipped incubator. The viability of the cells and CC50 values were determined using 3-(4,5-dimethylthiazol-2-yl)-2,5-diphenyltetrazolium bromide (MTT) assay. Subsequently, the absorbance was measured at 570 nm using the FilterMax F5 instrument from Molecular Devices. The selectivity index (SI) was determined as the ratio between the CC50 against NCTC cells and the EC50 against trypomastigotes or amastigotes.
as §2
A general note: Tetrazolium assays rely on reduction of a dye to a coloured formazan, in cell work by metabolically active cells.

The test system of data set [3] is T. cruzi trypomastigote. The data set is described as follows: Activity against trypomastigote forms of T. cruzi (resazurin viability, 24 h). It counts as cell-based, Trypanosoma cruzi (Y strain). To be noted: trypomastigotes, serial dilutions 1.7 to 150 μM; for EC50: Trypanosoma cruzi, read-out: T. cruzi Trypomastigote EC50 (μM) ± SD. The protocol: as §1
Tests of the activity from compounds 1–8 against the trypomastigote form of T. cruzi was performed, according to procedures previously reported. Trypomastigotes, in a concentration of 1 × 10^6 parasites/well, were seeded in 96-well plates and incubated with the tested compounds, alongside the standard drug benznidazole, in serial dilutions ranging from 1.7 to 150 μM, for 24 h at 37 °C in a 5% CO2 incubator. Subsequently, 20 μL of 10% resazurin was added, in order to determine cell viability. Absorbance was read in a plate spectrofluorometer Filter Max F5 Multi-Mode Microplate Reader at 570 nm. Untreated cells were used as negative controls, and cells treated with benznidazole were used as positive controls. The 50% effective concentration (EC50) against trypomastigote forms was determined by the regression of a sigmoid dose–response curve expressed in μM.
as §2
On the technique in general: The colour change of resazurin is a common sign of viable cells or microbes.

Setting [4] is: intracellular amastigotes in BALB/c peritoneal macrophages, serial dilutions 30.00 to 1.87 μM.
[5] abbreviates: NCTC cells (clone L929) fibroblasts.

For the compound `COC1C[C@@H](CC[C@@H]2[C@@H](C)CC=C3C(CO)(CO)CCC[C@@]32C)CO1` (relative stereo) [Compound 1, 15,16-epoxy-18,19-dihydroxy-16-methoxy-syn-labd-5-ene], the “T. cruzi Amastigote EC50 (μM) ± SD” value in data set [1] (setting [4]) was “inactive”. For the same compound, the CC50 at 48 h in data set [2] (setting [5]) was more than 200 µM. Further, the EC50 in data set [3] is 20.1 ± 1.5 µM.
`O=C(Cn1ccnc1[N+](=O)[O-])NCc1ccccc1` [Benznidazole, benznidazole, reference compound]: the EC50 in data set [1] (setting [4]) was 5.5 ± 2.2 µM; in data set [3] it was 18.7 ± 4.1 µM. In data set [2] (setting [5]), the CC50 at 48 h was more than 200 µM.
As for `C[C@H]1CC=C2C(CO)(CO)CCC[C@]2(C)[C@@H]1CC[C@H](CCO)COC(=O)/C=C/c1ccc(O)cc1` [Compound 2, gaudichaudol C], in data set [1] (setting [4]), the “T. cruzi Amastigote EC50 (μM) ± SD” value is “inactive”. Moreover, the CC50 at 48 h in data set [2] (setting [5]) is more than 200 µM. The EC50 in data set [3] came to 2.9 ± 1.5 µM.
Regarding `C=C1C[C@@]23CC[C@H]4[C@@](C)(CCC[C@@]4(C)C(=O)O)[C@@H]2CC[C@@H]1C3` [Compound 3, Ent-kaur-16-en-19-oic acid], in data set [1] (setting [4]), the “T. cruzi Amastigote EC50 (μM) ± SD” value is “inactive”. In addition, in data set [2], the CC50 at 48 h was more than 200 µM. Besides, the EC50 in data set [3] is 10.6 ± 4.4 µM.
As to `COc1c(O)cc2oc(-c3ccc(O)cc3)cc(=O)c2c1O` [Compound 4, Hispidulin], the EC50 in data set [1] is 12.8 ± 0.3 µM. For the same compound, the CC50 at 48 h in data set [2] is more than 200 µM. Also, the “T. cruzi Trypomastigote EC50 (μM) ± SD” value in data set [3] is recorded as “no activity”.
Consider `COc1c(O)cc2oc(-c3ccc(O)c(O)c3)cc(=O)c2c1O` [Compound 5, Eupafolin], for which the EC50 in data set [1] (setting [4]) was 2.7 ± 0.2 µM. Also, the “T. cruzi Trypomastigote EC50 (μM) ± SD” value in data set [3] is listed as “no activity”.
